Experimental data from patent US20190151294A1, “TREATMENT OF ALCOHOLISM AND DEPRESSION AND/OR DYSPHORIC MOOD USING IBUDILAST” (MEDICINOVA, INC., priority 2016, published 2019).

What was measured:
[1] = test system: non-treatment-seeking individuals with AUD; test: Phase 1b study: daily alcohol craving (AUQ); assay type: in vivo, human; settings: 50 mg BID; over the course of the study; p<0.05; FIG. 4
Experimental: Twenty four non-treatment-seeking individuals with AUD were treated with ibudilast (50 mg BID) and placebo (PBO). Participants completed two alcohol IV challenges, one after taking IBUD for 6 days and one after taking matched PBO for 6 days with a 5-10 day washout period between the study drug conditions. Ibudilast was obtained in the form of capsules containing a delayed-release 10 mg formulation. Matching capsules of the placebo also were obtained. Each participant visited the Clinical and Translational Research Center (CTRC) during on Days 1-5 of each medication condition during which they came in for daily morning visits with the study nurse to take the morning study medication under direct observation and took home the evening study medication. The participants stayed overnight on Day 6 and were discharged on Day 7. […]
(§1) The study comprised a treatment group and a placebo group and each participant completed a daily assessment questionnaire to address changes in mood, withdrawal effects, alcohol cravings, and address issues pertaining to other side effects. […] Following the intravenous alcohol challenge, participants were monitored for 24 hours and then discharged. Following a 5-10 day washout period study participants were readmitted to the CTRC where they received the opposite treatment (IBUD or PBO) for the second part of the study.

[2] = test system: non-treatment-seeking individuals with AUD; test: Phase 1b study: safety and tolerability; assay type: in vivo, human
Experimental: A Phase 1b laboratory study was conducted to determine the safety, tolerability, and initial efficacy of ibudilast (50 mg BID) in humans as a potential AUD therapeutic agent.
To address each of the above mentioned specific aims, a randomized, crossover, double-blind, placebo-controlled study was conducted to determine the safety, tolerability, and efficacy of ibudilast in individuals with current AUD. Participants were between the ages of 21 and 65 years; met the DSM-5 diagnostic criteria for AUD; reported drinking at least 48 standard drinks in a 30-day period, during the 90 days before enrollment; and were non-treatment seeking alcohol dependent individuals who consented to an inpatient stay at a medical facility for part of the study.
Twenty four non-treatment-seeking individuals with AUD were treated with ibudilast (50 mg BID) and placebo (PBO). Participants completed two alcohol IV challenges, one after taking IBUD for 6 days and one after taking matched PBO for 6 days with a 5-10 day washout period between the study drug conditions. Ibudilast was obtained in the form of capsules containing a delayed-release 10 mg formulation. Matching capsules of the placebo also were obtained. Each participant visited the Clinical and Translational Research Center (CTRC) during on Days 1-5 of each medication condition during which they came in for daily morning visits with the study nurse to take the morning study medication under direct observation and took home the evening study medication. The participants stayed overnight on Day 6 and were discharged on Day 7. During the daily visits to the CTRC, the study nurse collected vital signs, asked about side effects in an open-ended fashion and used the Systematic Assessment for Treatment Emergent Events (SAFTEE).
as §1, with “effects. Thus, non-treatment seeking alcohol dependent individuals were treated with ibudilast 50 mg (5×10 mg capsules) twice daily (BID) or placebo (PBO).” for “effects.”
Breath alcohol content (BrAC) was monitored every 3 to 5 minutes during infusion until target BrAC's of 0.02 g·dl, 0.04 g·dl, 0.06 g·dl, and 0.08 g·dl were obtained, following which infusion rates were reduced to half the original rate to maintain stable BrAC levels during the testing phase. The following parameters were assessed prior to intravenous alcohol challenge and again at each target BrAC: (1) Biphasic Alcohol Effects Scale (BAES) to obtain a reliable and valid measure of alcohol's stimulant and sedative effects; (2) Alcohol Urge Questionnaire (AUQ)—an 8-item scale where subjects rate their craving for alcohol at the present moment, which is appropriate for examining the level of the urge to drink alcohol; (3) Alcohol Ratings Scale, which captures “liking” and “wanting” of alcohol”; (4) The Profile of Mood States (POMS; McNair 1971) which was used to record positive and negative mood states; and (5) Heart Rate and Blood Pressure levels measure at baseline and at each target level of BrAC.

Compound: CC(C)C(=O)c1c(C(C)C)nn2ccccc12 [ibudilast, Ibudilast]
- basal, daily alcohol craving (AUQ) [1]: significantly decreased
- dose reductions during the course of the study ([2]; 50 mg BID): no dose reductions
- drop-outs for adverse event-related reasons ([2]; 50 mg BID): No subjects dropped out
- tolerability and safety ([2]; 50 mg BID oral (20 mg BID days 1-2), 6 days, humans with AUD): well tolerated and safe
- heart rate or blood pressure in the context of alcohol consumption ([2]; 50 mg BID, IV alcohol, across the BrACs, p's>=0.35): did not affect
- headache, reported adverse drug effect ([2]; 50 mg BID, vs 0 during placebo, p<0.05): 4 instances
